Experimental data published in publication doi:10.64898/2025.12.30.696991 (bioRxiv, 2026).
Like-named read-outs stand apart in the source and are kept apart here.

Legend:
in vitro = assay type: cell-based
Description: Cell proliferation and viability in the presence of the analogs was tested in the macrophage cell line RAW 264.7 using a 3-(4,5-dimethylthiazol-2-yl)-2,5-diphenyl-2H-tetrazolium bromide (MTT) assay. Cells were seeded at 3×10^4 cells/well in 96 well plates in DMEM (10% FBS, 1% pen/strep). […] DMSO vehicle was utilized as a control, as all the drugs were reconstituted from DMSO stocks. After 24 hr treatment, media was replaced with 100 μL of 0.6 mg/mL MTT solution and the cells were incubated at 37°C until formazan crystals formed. The MTT solution was then replaced with 100 μL of isopropanol, to dissolve the formazan crystals. Cell viability was determined by measuring absorbance at 560 nm of drug treated cells normalized to DMSO vehicle controls. The absorbance at 670 nm was used as a background correction. Cell viability was plotted against increasing drug concentration to obtain the 50% lethal concentration (LC50), defined as the drug concentration resulting in 50% cell viability.

[1] = test system: planktonic MDR S. Typhimurium (ATCC 700408); experiment: Direct effect on planktonic MDR bacteria (optical density 600 nm); assay type: cell-based, Salmonella enterica serovar Typhimurium; details: Salmonella enterica, Table 2, OD 600 nm
Description: (§1) A single colony of susceptible or MDR bacteria was inoculated into nutrient broth and incubated overnight at 37°C in an orbital shaker set at 200 rpm. The overnight culture was sub-cultured (1:100) in fresh medium to obtain log-phase bacterial growth after an additional 3 hr incubation at 37°C and further adjusted to obtain a bacterial stock solution with an absorbance value of 0.6 at 600 nm, equivalent to a concentration of 3×10^8 CFU/mL. The bacterial stock was diluted with nutrient broth to obtain 3×10^4 CFU/well in a 96 well plate. Next, 10 μL of each analog were added to yield a total volume of 100 μL /well with a final concentration of 20 μM. Drug-free and bacteria-free wells were used as controls. The plate was incubated at 37°C for 22 hr. Percent bacterial viability was determined using optical density measurements at 600 nm, subtracting out bacteria free absorbance (background) and normalizing to a DMSO vehicle control. Bacterial viability was plotted against increasing drug concentration to obtain the 50% minimum inhibitory concentration (MIC50), defined as the drug concentration resulting in 50% bacterial viability.

[2] = test system: intracellular MDR S. Typhimurium (ATCC 700408); experiment: Intracellular gentamicin protection assay, MDR S. Typhimurium in RAW 264.7 macrophages; assay type: cell-based, Salmonella enterica serovar Typhimurium; details: for IC50: Salmonella enterica, RAW264.7, Table 2, intracellular burden 50% in RAW 264.7; for MDR Selectivity: Table 2, LC50 / IC50; for difference of IC50 between susceptible and MDR S. Typhimurium: defined as 2-fold difference MDR IC50 / Susc IC50
Description: (§2) RAW 264.7 cells were seeded at 3×10^4 cells/well in a 96-well plate and maintained at 37°C for 20 hours. A single colony of susceptible or MDR S. Typhimurium was inoculated and cultured overnight in nutrient broth and diluted to obtain a log-phase culture stock with an adjusted optical density (OD600) of 0.6, equivalent to a concentration of 3×10^8 CFU/mL (determined by a prior colony forming units (CFU) assay). The bacterial stock solution was resuspended in antibiotic-free DMEM supplemented with 2% FBS and further diluted to obtain a bacterial concentration of 3×10^6 CFU/mL. Cell media was aspirated and replaced with 100 μL of bacteria culture in DMEM resulting in a multiplicity of infection (MOI) of 10. The cells underwent infection for two hours or 30 minutes at 37°C with susceptible or MDR bacteria, respectively. This differential infection incubation period was based on strain-specific infectivity potential. […] Media was aspirated from the wells and replaced with DMEM (2% FBS) containing 100 μg/mL gentamicin for one hour at 37°C to eliminate extracellular bacteria. Following this step, cells were washed once with media and treated for 22 hours with analogs at varying concentrations (0.1 – 5 μM) in DMEM (2% FBS, no pen/strep) containing 10 μg/mL gentamicin to suppress extracellular bacterial growth. AR-12 treated, uninfected, and DMSO-vehicle treated cells were included as controls. Post treatment, cells were washed with PBS and lysed with 0.1% Triton-X100, a concentration sufficient to disrupt host cells while preserving bacterial integrity. The lysates containing intracellular bacteria were serially diluted and enumerated by using drop-plate assay as described previously.([27]) Agar plates were incubated overnight at 37°C before CFU from each dilution were counted.
Supplemental Figure 2: Evaluating lead compound efficacy against MDR S. Typhimurium. A) Schematic illustrating gentamicin protection assay. Day 0 RAW 264.7 macrophages are seeded into 96-well plate and STM culture is inoculated. Day 1: RAW 264.7 cells are infected with STM at an MOI of 10 for 30 min, washed, then treated with gentamicin for 1hr to remove extracellular bacteria. AR-12 analogs added to infected cells for 22hr incubation. Day 2: RAWs are washed, lysed, diluted and then dropped onto agar plates. Day 3: colony forming units (CFUs) counted. B) Dose effect curves of intracellular MDR S. Typhimurium viability from RAW 264.7 macrophages after 22hr treatment with hit compounds. CFUs normalized to untreated controls. Parental compound AR-12 included for comparison.

[3] = test system: intracellular susceptible S. Typhimurium (ATCC 700720); experiment: Intracellular gentamicin protection assay, susceptible S. Typhimurium in RAW 264.7 macrophages; assay type: cell-based, Salmonella enterica serovar Typhimurium; details: for selectivity (selectivity indices): LC50 / IC50, strain not specified; for IC50: Salmonella enterica; for Selectivity: LC50 / IC50, susceptible S. Typhimurium
Description: as §2

[4] = test system: planktonic susceptible S. Typhimurium (ATCC 700720); experiment: Direct effect on planktonic susceptible bacteria (optical density 600 nm); assay type: cell-based, Salmonella enterica serovar Typhimurium; details: Salmonella enterica
Description: as §1

[5] = RAW264.7, 22 h, Table 1, concentration at which intracellular susceptible S. Typhimurium burden is 50% in RAW 264.7 macrophages, 22 h treatment, read-out: IC50
[6] = RAW264.7, Table 2, intracellular burden 50% in RAW 264.7, read-out: Susc. IC50
[7] = Table 1, planktonic susceptible S. Typhimurium viability 50% by optical density, 22 hr, read-out: MIC50
[8] = Table 2, planktonic Salmonella, OD 600 nm, read-out: Susc. MIC50

SMILES	CC50 at 24 h (in vitro; Table 1, RAW 264.7 viability reduced by 50%, MTT assay, 24 hr, 1–100 μM, read-out: LC50)	CC50 at 24 h (in vitro; Table 2, RAW 264.7 viability 50%, colorimetric assay, extended up to 500 μM, read-out: LC50)	MIC50 [1]	IC50 [2]	MDR Selectivity [2]	selectivity (selectivity indices) [3]	IC50 [3, 5]	IC50 [3, 6]	Selectivity ([3]; Table 1)	MIC50 [4, 7]	MIC50 [4, 8]	CC50 at 24 h (in vitro; mouse, LC50)	difference of IC50 between susceptible and MDR S. Typhimurium [2]	improvement in selectivity over AR-12 [3]
NCC(=O)Nc1ccc(-n2nc(C(F)(F)F)cc2-c2ccc3c(ccc4ccccc43)c2)cc1 [AR-12, reference compound]	8000 nM	8300 nM	> 20 µM	340 nM	24.4	around 20	420 nM	400 nM	19.8	> 20 µM	> 20 µM			
Fc1cccc(CN2CCC(Nc3ccc(-n4nc(C(F)(F)F)cc4C4CCCCC4)cc3)CC2)c1 [Compound 322]			> 20 µM	120 nM	372		140 nM	140 nM	324	> 20 µM	> 20 µM	43700 nM		
N#Cc1ccc(CN2CCC(Nc3ccc(-n4nc(C(F)(F)F)cc4C4CCCCC4)cc3)CC2)cc1 [Compound 323]			> 20 µM	200 nM	160		100 nM	100 nM	333	> 20 µM	> 20 µM	32000 nM	strongly different	
NC1CCN(c2ccc(-n3nc(C(F)(F)F)cc3C3CCCCC3)cc2)CC1 [Compound 324]			> 20 µM	160 nM	118		80 nM	80 nM	244	> 20 µM	> 20 µM	18800 nM	strongly different	
NCC(=O)Nc1ccc(-n2nc(C(F)(F)F)cc2C2CCCCC2)cc1 [Compound 341]			> 20 µM	100 nM	318		80 nM	80 nM	398	> 20 µM	> 20 µM	31800 nM		
FC(F)(F)c1cc(C2CCCCC2)n(-c2ccc(N3CCC(NCc4ccccc4)C3)cc2)n1 (centres unmarked) [Compound 364]			> 20 µM	120 nM	291		130 nM	130 nM	269	> 20 µM	> 20 µM	35000 nM		
N#Cc1ccc(CNC2CCN(c3ccc(-n4nc(C(F)(F)F)cc4C4CCCCC4)cc3)C2)cc1 (centres unmarked) [Compound 365]			> 20 µM	370 nM	115		150 nM	150 nM	285	> 20 µM	> 20 µM	42700 nM	strongly different	
FC(F)(F)c1cc(C2CCCCC2)n(-c2ccc(OC3CCNCC3)cc2)n1 [Compound 370]			> 20 µM	60 nM	269		80 nM	80 nM	229	> 20 µM	> 20 µM	17200 nM		
FC(F)(F)c1cc(C2CCCCC2)n(-c2ccc(OC3CCN(Cc4ccccc4)CC3)cc2)n1 [Compound 371]			> 20 µM	110 nM	790		140 nM	140 nM	644	> 20 µM	> 20 µM	90200 nM		
Fc1cccc(CN2CCC(Oc3ccc(-n4nc(C(F)(F)F)cc4C4CCCCC4)cc3)CC2)c1 [Compound 372]			> 20 µM	170 nM		> 2000	130 nM	~130 nM	>769	> 20 µM	> 20 µM			
N#Cc1ccc(CN2CCC(Oc3ccc(-n4nc(C(F)(F)F)cc4C4CCCCC4)cc3)CC2)cc1 [Compound 373]			> 20 µM	~130 nM		> 2000	130 nM	~130 nM	>769	> 20 µM	> 20 µM			
FC(F)(F)c1cc(C2CCCCC2)n(-c2ccc(OC3CCN(Cc4ccccc4)C3)cc2)n1 (centres unmarked) [Compound 378]			> 20 µM	180 nM			310 nM	310 nM	>322	> 20 µM	> 20 µM			approximately 100 fold
FC(F)(F)c1cc(C2CCCCC2)n(-c2ccc(NC3CCN(Cc4ccccc4)CC3)cc2)n1 [Compound 381]			> 20 µM	140 nM	211		110 nM	110 nM	260	> 20 µM	> 20 µM	28600 nM		
